In assay [1] the test system is HGC-27. In words: Induction of apoptosis in human HGC-27 cells assessed as early apoptotic cells at 2 uM incubated for 48 hrs by annexin V-FITC and PI staining based flow cytometry analysis (reference value: 3.13%). Type of assay: functional. (In general: A flow cytometer gives signals particle by particle.)
Assay [2] concerns HGC-27. In words: Downregulation of Bcl-xl expression in human HGC-27 cells at 0.5 to 2 uM incubated overnight by Western blotting analysis. Type of assay: functional, cell-based. Conditions: dose 0.5-2 µM. In general terms: In western blotting, separated proteins are transferred to a membrane and probed.
Assay [3] deals with AGS. In words: Induction of autophagy in human AGS cells assessed as upregulation of Beclin1 protein level at 0.5 to 2 uM incubated for 48 hrs by Western blotting analysis. Type of assay: functional, cell-based. Conditions: dose 0.5-2 µM.
In assay [4] the test system is AGS. Kind of assay: Induction of apoptosis in human AGS cells assessed as viable cells at 2 uM incubated for 48 hrs by annexin V-FITC and PI staining based flow cytometry analysis (reference value: 92.0%). The assay is classed as functional. Conditions: read-out: Activity.
The subject of assay [5] is HGC-27. In words: Antitumor activity against human HGC-27 cells xenografted in male BALB/c nude mouse assessed as tumor growth inhibition at 25 mg/kg, ip administered every day for 15 days relative to control. The assay is classed as functional. The following applies: HGC-27, 360 h, time 15 day, read-out: TGI. In general terms: A xenograft is tissue or cells of one species grown in another, often human tumour cells in immunodeficient mice.

Assay [6] relates to AGS. Kind of assay: Induction of apoptosis in human AGS cells assessed as necrotic cells at 2 uM incubated for 48 hrs by annexin V-FITC and PI staining based flow cytometry analysis (reference value: 0.44%). The assay is classed as functional.
Assay [7] deals with AGS. Kind of assay: Induction of apoptosis in human AGS cells assessed as late apoptotic cells at 0.5 uM incubated for 48 hrs by annexin V-FITC and PI staining based flow cytometry analysis (reference value: 3.15%). Type of assay: functional.

The values below come from ChEMBL document CHEMBL6114967, “Design and synthesis of novel sulfur-substituted triptolide with the ability to induce autophagy through inhibition of SRSF1 expression” (Eur J Med Chem, 2025).

Active and inactive are the calls of the source. The calls are words filed in the database; no cut-off is given here.

On to `CC(C)[C@]12O[C@H]1[C@@H]1O[C@]13[C@]1(O[C@H]1C[C@H]1C4=C(CC[C@@]13C)C(=S)OC4)[C@@H]2O`, for which the Activity in the assay with HGC-27 [1] is recorded as 28.1%; in the assay with AGS [6], 0.82%; in the assay with AGS [7] it was 7.89%. Further, the outcome in the assay with HGC-27 [2] and in the assay on AGS [3] was Active. In the assay with AGS [4], the viability at 2 µM is 35.9%. Also, in the assay with HGC-27 [5], the inhibition in vivo at 25 mg/kg amounted to 63.7%.
